Counter-ions that a name gives are not always drawn.

Results on 19 molecules are retold here after patent publication US9315475B2 (MERCK SHARP & DOHME CORP., priority 2011, dated 2016).

One experiment relates to HIV-1 (H9IIIB strain). Put plainly: Antiviral acute infection assay in cell culture (Spread). The class given is cell-based. The settings on record: Human immunodeficiency virus 1, T-lymphoid, HIV-1 H9IIIB infection of MT-4 human T-lymphoid cells in 10% FBS; mean of at least two independent experiments. The text has this:
Antiviral Assays in Cell Culture (“Spread”)
Acute Infection Assay (“Spread”) data were generated using HIV-1 (H9IIIB strain) infection of MT-4 human T-lymphoid cells in 10% FBS, and according to the methods disclosed by J. P. Vacca et al, “L-735,524: An orally bioavailable human immunodeficiency virus type 1 protease inhibitor,” Proc. Natl. Acad. Sci. USA, Vol. 91, pp. 4096-4100 (April 1994).

The next experiment deals with T1, wildtype HIV-1 protease (Human immunodeficiency virus type 1 group M subtype B, UniProt P04585).
T1 construct: the wildtype HIV-1 protease (which was expressed in Escherichia coli); made in house; host or cells: Escherichia coli
The experiment in a line: Assay for inhibition of microbial expressed HIV protease (Pepcleav). The settings on record: wild type HIV-1 protease expressed in E. coli, peptide substrate, pH 5.5; mean of at least two independent experiments; read-out: Pepcleav. The experiment is classed as biochemical. Put shortly:
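Cleavage of 400 μM peptide substrate Val-Ser-Gln-Asn-(βnaphthyl)Ala-Pro-Ile-Val by 20 pM wild-type enzyme (E. coli-expressed) ran 1 h at 30 °C after 30 min inhibitor preincubation, pH 5.5 acetate buffer. Inhibition derived from product peak area by C18 LC with multiple-reaction-monitoring MS after formic acid quench.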

Take `CCC[C@H](c1ccccc1)[C@H](NC(=O)OC)C(=O)Nc1cccc(F)c1CC[C@@H]1CN[C@H](COC(=O)NCC(F)(F)F)CO1` [Example 293, (βR)-N-(3-fluoro-2-{2-[(2R,5S)-5-({[(2,2,2-trifluoroethyl)carbamoyl]oxy}methyl)morpholin-2-yl]ethyl}phenyl)-Nα-(methoxycarbonyl)-β-propyl-L-phenylalaninamide]: it took 80 nM to reach a half-maximal effect with HIV-1 (H9IIIB strain) (EC50). Further, on wildtype HIV-1 protease, the IC50 was 100 nM.
The like results for `N[C@H](C(=O)Nc1cncc(F)c1CC[C@@H]1CN[C@H](COC(=O)NCC(F)(F)F)CO1)[C@@H](c1ccc(F)cc1)c1cccc(C(F)(F)F)c1` [Example 272, (βS)-4-fluoro-N-(5-fluoro-4-{2-[(2R,5S)-5-({[(2,2,2-trifluoroethyl)carbamoyl]oxy}methyl)morpholin-2-yl]ethyl}pyridin-3-yl)-β-[3-(trifluoromethyl)phenyl]-L-phenylalaninamide] were, in that order, 32 nM and 2 nM.
In the case of `N[C@H](C(=O)Nc1cncc(F)c1CC[C@@H]1CN[C@H](COC(=O)NCC(F)(F)F)CO1)C(c1ccc(F)cc1)c1ccc(F)cc1` [Example 79, 4-Fluoro-β-(4-fluorophenyl)-N-(5-fluoro-4-{2-[(2R,5S)-5-({[(2,2,2-trifluoroethyl)carbamoyl]oxy}methyl)morpholin-2-yl]ethyl}pyridin-3-yl)-L-phenylalaninamide trihydrochloride], the response in the experiment with HIV-1 (H9IIIB strain) was half-maximal at 37 nM (EC50). At wildtype HIV-1 protease, the IC50 came to 3.6 nM.
In the case of `N[C@H](C(=O)Nc1cncc(F)c1CC[C@@H]1CN[C@H](COC(=O)NC2CC(F)(F)C2)CO1)C(c1ccc(F)cc1)c1ccc(F)cc1` [Example 217, N-(4-{2-[(2R,5S)-5-({[(3,3-difluorocyclobutyl)carbamoyl]oxy}methyl)morpholin-2-yl]ethyl}-5-fluoropyridin-3-yl)-4-fluoro-β-(4-fluorophenyl)-L-phenylalaninamide], the EC50 (as a rule, the concentration that produces a half-maximal response) in the experiment with HIV-1 (H9IIIB strain) was 94 nM. Moreover, the IC50 on wildtype HIV-1 protease turned out to be 2.7 nM.
`COc1ccc([C@H](c2ccc(F)cc2)[C@H](N)C(=O)Nc2cncc(F)c2CC[C@@H]2CN[C@H](COC(=O)NCC(F)(F)F)CO2)cc1` [Example 250, (βR)-β-(4-fluorophenyl)-N-(5-fluoro-4-{2-[(2R,5S)-5-({[(2,2,2-trifluoroethyl)carbamoyl]oxy}methyl)morpholin-2-yl]ethyl}pyridin-3-yl)-O-methyl-L-tyrosinamide] returned an EC50 in the experiment with HIV-1 (H9IIIB strain) of 63 nM. For the same molecule, the IC50 at wildtype HIV-1 protease is 8.3 nM.
Consider `COC(=O)N[C@H](C(=O)Nc1cccc(F)c1CC[C@@H]1CN[C@H](COC(=O)NCC(F)(F)F)CO1)[C@H](c1ccccc1)c1ccc(OC)cc1` [Example 296, (βR)-N-(3-fluoro-2-{2-[(2R,5S)-5-({[(2,2,2-trifluoroethyl)carbamoyl]oxy}methyl)morpholin-2-yl]ethyl}phenyl)-Nα-(methoxy-carbonyl)-O-methyl-β-phenyl-L-tyrosinamide], for which, in the experiment on HIV-1 (H9IIIB strain), the EC50 amounted to 120 nM. Moreover, at wildtype HIV-1 protease, the IC50 was found to be 23 nM.
In the experiment on HIV-1 (H9IIIB strain), `COC(=O)N[C@H](C(=O)Nc1cccc(F)c1CC[C@@H]1CN[C@H](COC(=O)NCC(F)(F)F)CO1)[C@H](c1ccccc1)c1cccc(OC)c1` [Example 305, (βR)-N-(3-fluoro-2-{2-[(2R,5S)-5-({[(2,2,2-trifluoroethyl)carbamoyl]oxy}methyl)morpholin-2-yl]ethyl}phenyl)-3-methoxy-Nα-(methoxy-carbonyl)-β-phenyl-L-phenylalaninamide] gave an EC50 of 42 nM. Besides, at wildtype HIV-1 protease, the IC50 came out at 230 nM.
On to `COC(=O)N[C@H](C(=O)Nc1cccc(F)c1CC[C@@H]1CN[C@H](COC(=O)NCC(F)(F)F)CO1)[C@H](c1ccc(F)cc1)c1ccc(F)c(F)c1` [Example 295, (βR)-β-(3,4-difluorophenyl)-4-fluoro-N-(3-fluoro-2-{2-[(2R,5S)-5-({[(2,2,2-trifluoroethyl)carbamoyl]oxy}methyl)morpholin-2-yl]ethyl}phenyl)-Nα-(methoxy-carbonyl)-L-phenylalaninamide], for which the EC50 in the experiment with HIV-1 (H9IIIB strain) came to 13 nM. Also, the IC50 on wildtype HIV-1 protease worked out at 2.5 nM.
Turning to `COc1ccc([C@H](CC(=O)Nc2cccc(F)c2CC[C@@H]2CN[C@H](COC(=O)NCC(F)(F)F)CO2)c2ccc(F)cc2)cc1` [Example 151, {(3S,6R)-6-[2-(2-fluoro-6-{[(3S)-3-(4-fluorophenyl)-3-(4-methoxy-phenyl)propanoyl]amino}phenyl)ethyl]morpholin-3-yl}methyl (2,2,2-trifluoroethyl)carbamate], the EC50 in the experiment on HIV-1 (H9IIIB strain) is 290 nM. Also, on wildtype HIV-1 protease, the IC50 is 100 nM.
On to `COC(=O)N[C@H](C(=O)Nc1cccc(F)c1CC[C@@H]1CN[C@H](COC(=O)NCC(F)(F)F)CO1)[C@H](c1ccccc1)c1ccc2ccccc2c1` [Example 290, (βR)-N-(3-fluoro-2-{2-[(2R,5S)-5-({[(2,2,2-trifluoroethyl)carbamoyl]oxy}methyl)morpholin-2-yl]ethyl}phenyl)-Nα-(methoxycarbonyl)-β-naphthalen-2-yl-L-phenylalaninamide], for which the EC50 with HIV-1 (H9IIIB strain) worked out at 600 nM. At wildtype HIV-1 protease, the IC50 was 30 nM.
The like results for `N[C@H](C(=O)Nc1cccc(F)c1CC[C@@H]1CN[C@H](COC(=O)NCC(F)(F)F)CO1)[C@@H](c1ccc(Cl)cc1)c1cccc(F)c1` [Example 274, (βS)-β-(4-chlorophenyl)-3-fluoro-N-(3-fluoro-2-{2-[(2R,5S)-5-({[(2,2,2-trifluoroethyl)carbamoyl]oxy}methyl)morpholin-2-yl]ethyl}phenyl)-L-phenylalaninamide] were, in that order, 11 nM and 1.3 nM.
The like results for `O=C(NCC(F)(F)F)OC[C@@H]1CO[C@H](CCc2c(F)cncc2NC(=O)[C@@H](NC(=O)OCCF)C(c2ccc(F)cc2)c2ccc(F)cc2)CN1` [Example 279, 4-fluoro-Nα-[(2-fluoroethoxy)carbonyl]-β-(4-fluorophenyl)-N-(5-fluoro-4-{2-[(2R,5S)-5-({[(2,2,2-trifluoroethyl)carbamoyl]oxy}methyl)morpholin-2-yl]ethyl}pyridin-3-yl)-L-phenylalaninamide] were, in that order, 57 nM and 1.9 nM.
The like results for `O=C(CC(c1ccccc1)c1ccccc1)Nc1cncc(F)c1CC[C@@H]1CN[C@H](COC(=O)NCC(F)(F)F)CO1` [Example 146, [(3S,6R)-6-(2-{3-[(3,3-diphenylpropanoyl)amino]-5-fluoropyridin-4-yl}ethyl)morpholin-3-yl]methyl (2,2,2-trifluoroethyl)carbamate] were, in that order, 47 nM and 13 nM.
In the experiment with HIV-1 (H9IIIB strain), `N[C@H](C(=O)Nc1c(Cl)cccc1OC[C@@H]1CN[C@H](COC(=O)NCC(F)(F)F)CO1)C(c1ccc(F)cc1)c1ccc(F)cc1` [Example 260, N-(2-chloro-6-{[(2S,5S)-5-({[(2,2,2-trifluoroethyl)carbamoyl]oxy}methyl)morpholin-2-yl]methoxy}phenyl)-4-fluoro-β-(4-fluorophenyl)-L-phenylalaninamide] gave an EC50 of 190 nM. On wildtype HIV-1 protease, the IC50 worked out at 4.8 nM.
The like results for `COc1ccc([C@@H](c2ccccc2)[C@H](N)C(=O)Nc2cncc(F)c2CC[C@@H]2CN[C@H](COC(=O)NCC(F)(F)F)CO2)cc1` [Example 256, (βR)-N-(5-fluoro-4-{2-[(2R,5S)-5-({[(2,2,2-trifluoroethyl)carbamoyl]oxy}methyl)morpholin-2-yl]ethyl}pyridin-3-yl)-O-methyl-β-phenyl-L-tyrosinamide] were, in that order, 100 nM and 5.7 nM.
The like results for `NC(=O)OC[C@@H]1CO[C@H](CCc2c(F)cccc2NC(=O)[C@@H](N)C(c2ccc(F)cc2)c2ccc(F)cc2)CN1` [Example 116, N-[2-(2-{(2R,5S)-5-[(Carbamoyloxy)methyl]morpholin-2-yl}ethyl)-3-fluorophenyl]-4-fluoro-β-(4-fluorophenyl)-L-phenylalaninamide] were, in that order, 47 nM and 17 nM.
The like results for `N[C@H](C(=O)Nc1cccc(F)c1CC[C@@H]1CN[C@H](COC(=O)NCC(F)(F)F)CO1)[C@H](c1ccccc1)c1ccc2ccccc2c1` [Example 241, (βR)-N-(3-fluoro-2-{2-[(2R,5S)-5-({[(2,2,2-trifluoroethyl)carbamoyl]oxy}methyl)morpholin-2-yl]ethyl}phenyl)-β-naphthalen-2-yl-L-phenylalaninamide] were, in that order, 360 nM and 32 nM.
In the experiment on HIV-1 (H9IIIB strain), `N[C@H](C(=O)Nc1cncc(F)c1CC[C@@H]1CN[C@H](COC(=O)NCC(F)(F)F)CO1)[C@@H](c1ccc(F)cc1)c1ccc(F)c(F)c1` [Example 265, (βS)-3,4-difluoro-β-(4-fluorophenyl)-N-(5-fluoro-4-{2-[(2R,5S)-5-({[(2,2,2-trifluoroethyl)carbamoyl]oxy}methyl)morpholin-2-yl]ethyl}pyridin-3-yl)-L-phenylalaninamide] gave an EC50 of 36 nM. The IC50 on wildtype HIV-1 protease turned out to be 3.1 nM.
`N[C@H](C(=O)Nc1cncc(F)c1CC[C@@H]1CN[C@H](COC(=O)NC[C@H]2CCC(=O)N2)CO1)C(c1ccc(F)cc1)c1ccc(F)cc1` [Example 254, 4-fluoro-N-(5-fluoro-4-{2-[(2R,5S)-5-{[({[(2R)-5-oxopyrrolidin-2-yl]methyl}carbamoyl)oxy]methyl}morpholin-2-yl]ethyl}pyridin-3-yl)-β-(4-fluorophenyl)-L-phenylalaninamide]: it took 1100 nM to reach a half-maximal effect in the experiment with HIV-1 (H9IIIB strain) (EC50). Further, the IC50 on wildtype HIV-1 protease was determined as 7.6 nM.
